Values joined by “and” are separate entries in the source; they are usually repeats but may differ in a detail not shown here. Equal entries are not always repeated. Where two headings read alike, the source gives them in different places.
What was measured:
[1] = system: lamina propria mononuclear cells; assay: TUNEL assay for apoptotic lamina propria mononuclear cells in IBD patients; assay type: in vivo, human
Source text: FIG. 3. […] (a) LPMCs were isolated and stimulated with anti-CD2/CD28 plus IL-2 in the presence or absence of 6-MP for 5 days followed by FACS analysis. […] Data represent mean values±SEM from eight patients with IBD per group. […] Data are representative of 5-13 patients per group. Magnification, ×20 (bar=100 μm) (ce) and ×40 (bar=50 μm) (f-h). (i) Quantification of the percentage of apoptotic, TUNEL-positive LPMCs in patients with IBD receiving 6-MP as compared with untreated control patients. […] Data are mean values±SEM of 5-13 patients per group.

[2] = system: lamina propria lymphocytes; assay: Apoptosis of anti-CD2/CD28 activated lamina propria lymphocytes in vitro; assay type: cell-based, human; settings: ulcerative colitis; 5 days
Source text: Isolation of primary CD4^+ T lymphocytes and lamina propria cells: Human peripheral blood mononuclear cells (PBMCs) from healthy volunteers (25-42 years of age) and patients with Crohn's disease (31-65 years of age) were isolated using Ficoll-Hypaque gradients. PBMCs were further purified using CD4 monoclonal antibodies attached to immunomagnetic beads according to the manufacturer's protocol, followed by treatment with Detachabead (Dynal; Oslo, Norway). In some cases, CD4^+ T cells were further separated by negative selection techniques using CD45RO or CD45RA monoclonal antibodies (PharMingen; Heidelberg, Germany) and immunomagnetic beads (Dynal). […]
For FACS analysis, apoptotic cells were detected by staining with annexin V and propidium iodide using the Annexin V FITC Apoptosis Detection Kit I (PharMingen) (Atreya et al., Nat. Med. 6:583-588 (2000)). […] To verify the results obtained with the annexin V/propidium iodide staining, analysis of T cells displaying DNA fragmentation was also determined by the Nicoletti technique, as described in (Nicoletti et al., J. Immunol. Methods 139:271-279 (1991)). […] Finally, cells were analyzed on a FACScan flow cytometer. […]

[3] = after oral administration and absorption; non-enzymatic attack by sulfhydryl-containing compounds; cited from earlier work
Crohn's disease = settings: CD patients, long-term azathioprine
Protocol: The diagnosis of CD was confirmed in all patients by radiographic, endoscopic, and histopathologic parameters. Clinical outcomes such as the Crohn's disease activity index (CDAI), number of flares per year, and demand for anti-TNF antibody (e.g., infliximab) treatment were determined on clinical visits.

Rac1 = settings: primary T cells upon azathioprine treatment
[4] = subgroup n=6 (low 6-TGN, low TGTP ratio)
[5] = subgroup n=13 (high 6-TGN and TGDP levels, ratio less than about 0.85)
[6] = subgroup n=13 (high 6-TGN and TGTP levels, ratio greater than about 0.85)
[7] = subgroup n=15 (low 6-TGN, high TGTP ratio)
[8] = subgroup n=21 (low 6-TGN levels)
[9] = subgroup n=26 (high 6-TGN levels)

Structure (SMILES): Sc1ncnc2nc[nH]c12 [6-MP, 6-mercaptopurine]
- number of apoptotic cells ([1]; 6-MP-resistant patients with IBD): no increase
- number of apoptotic lamina propria mononuclear cells ([1]; successful 6-MP treatment vs untreated patients with IBD, P<0.01): significant increase
- apoptosis in anti-CD2 plus anti-CD28 activated lamina propria lymphocytes [2]: capable of inducing apoptosis

Structure (SMILES): Cn1cnc([N+](=O)[O-])c1Sc1ncnc2nc[nH]c12 [azathioprine, Azathioprine]
- conversion to 6-MP [3]: approximately 90%
- CDAI (Crohn's disease activity index) (Crohn's disease; [4]): 151 ± 55
- Flares (number of flares per year) (Crohn's disease; [4]): 1.4 ± 1.3
- INF (infliximab use) (Crohn's disease; [4]): 1.0 ± 0.6
- Response (clinical response rate) (Crohn's disease; [4]): 0.5 ± 0.3
- CDAI (Crohn's disease activity index) (Crohn's disease; [5]): 277 ± 62
- Flares (number of flares per year) (Crohn's disease; [5]): 2.1 and 2.1 ± 0.9
- INF (infliximab use) (Crohn's disease; [5]): 1.1 and 1.1 ± 0.5
- Response (clinical response rate) (Crohn's disease; [5]): 0.15 and 0.15 ± 0.1
- CDAI (Crohn's disease activity index) (Crohn's disease; [6]): 149 ± 35
- INF (infliximab use) (Crohn's disease; [6]): 0.36 and 0.36 ± 0.2
- CDAI (Crohn's disease activity index) (Crohn's disease; [7]): 189 ± 28
- Flares (number of flares per year) (Crohn's disease; [7]): 1.9 ± 1
- INF (infliximab use) (Crohn's disease; [7]): 1.1 ± 0.7
- Response (clinical response rate) (Crohn's disease; [7]): 0.1 ± 0.1
- CDAI (Crohn's disease activity index) (Crohn's disease; [8]): 176 ± 26
- Flares (number of flares per year) (Crohn's disease; [8]): 2.1 ± 0.9
- INF (infliximab use) (Crohn's disease; [8]): 1.1 ± 0.5
- Response (clinical response rate) (Crohn's disease; [8]): 0.16 and 0.16 ± 0.1
- CDAI (Crohn's disease activity index) (Crohn's disease; [9]): 206 ± 36
- Flares (number of flares per year) (Crohn's disease; [9]): 1.1 ± 0.6
- INF (infliximab use) (Crohn's disease; [9]): 0.7 ± 0.3
- 6-TG detected in Rac1 pull-downs (Rac1): approximately 120 pg of 6-TG per microgram

— patent US7524851B2 (Robert Bosch Gesellschaft fur Medizinische Forschung (RBMF), priority 2003, dated 2009)
